Assay results as given in US11058700B2, “Macrocyclic lactones and uses thereof as modulators of purinergic receptors” (City of Hope, priority 2015, dated 2021).

Legend:
[1] = tested on: Calreticulin (CRT) and Mannose-6 Phosphate receptor; test: Surface exposure of CRT and Mannose-6 Phosphate receptor; format: cell-based, mouse, human
Method: FIGS. 6A-6E. Ivermectin induces autophagy. FIG. 6A: Ivermectin induces autophagy in breast cancer cells. MDA-MB-231 GFL-LC3 cells were treated with different doses of Ivermectin for 24 h and formation of green fluorescent puncta was evaluated by confocal fluorescence microscopy. FIG. 6B: Western blot confirming the induction of autophagy in both murine and human breast cancer cells, as evidenced by LC3 lipidation and autophagic degradation of p62(SQSTM1). […] MDA-MB-231 cells (triplicates) were treated with different doses of Ivermectin for up to 24h and surface stained with antibody-specific for the human M6P receptor versus isotype control. Similarly, 4T1.2 and MB231 cells were treated with different doses of Ivermectin for 4-24 h, and were stained with an antibody specific for both human and mouse CRT versus isotype control. Mean fluorescent intensity (MFI) values and ratios versus isotype control were calculated after gating on live/membrane-intact cells. […]
Surface exposure of CRT and Mannose-6 Phosphate receptor. Surface exposure of Calreticulin (CRT) and Mannose-6 Phosphate receptor (CD220) was evaluated by staining with monoclonal antibodies specific for CRT (unconjugated, specific for both mouse and human, Abcam ab22683, and PE-conjugated, specific for human only, Abcam, ab83220) and CD220 (Thermo […]

TNBC cells = test: Extracellular ATP release; format: cell-based, mouse, human
Method: FIGS. 3A-3G. Dual roles of ATP and purinergic signaling in Ivermectin's killing. FIG. 3A: Depletion of extracellular ATP with Apyrase (2500 μunits/ml) exacerbates killing of 4T1.2 cell by Ivermectin. FIG. 3B: Extracellular Ca^2− and ATP contain Ivermectin-induced cell swelling. 4T1.2 cells were treated with 32 μM Ivermectin for 4 h in the presence of 1 mM EDTA or 2500 μunits/ml Apyrase. FIG. 3C: Ivermectin (0.5-32 μM) and high concentrations of extracellular ATP (0.3-3 mM) synergistically open pannexin-1 channels and permeabilize the membrane on live cells (7AAD-positive dead cells were gated out). 4T1.2 cells were treated for 30 min as indicated in the presence of 7 AAD and 5 μM YOPRO-1. FIG. 3D: Analysis of supernatants from Ivermectin-treated murine and human TNBC cells showing rapid release of ATP followed by its transient depletion. Depletion of extracellular ATP with Apyrase (2500 μunits/ml) was used as a positive control. […]
Extracellular ATP release. […] The cancer cells engineered to stably express the membrane-bound Luciferase were treated with Ivermectin for 30 min-4 h and luminescence was measured in the presence of 2 μM Luciferin. ATP concentration in Ivermectin treated supernatants was measured using ATP determination kit (Life Technologies, A22066) following manufacturers' instructions.

Structure (SMILES): CC[C@H](C)[C@H]1O[C@]2(CC[C@@H]1C)C[C@@H]1C[C@@H](C/C=C(\C)[C@@H](O[C@H]3C[C@H](OC)[C@@H](O[C@H]4C[C@H](OC)[C@@H](O)[C@H](C)O4)[C@H](C)O3)[C@@H](C)/C=C/C=C3\CO[C@@H]4[C@H](O)C(C)=C[C@@H](C(=O)O1)[C@]34O)O2 [Ivermectin]
- surface exposure of Calreticulin (CRT) ([1]; 4T1.2 and MB231 cells, 4-24 h): does not significantly impact surface CRT
- plasma membrane exposure of M6P receptors ([1]; MDA-MB-231 cells, up to 24 h): up-regulate plasma membrane exposure of mannose-6-phosphate (M6P) receptors
- extracellular ATP levels in supernatants (TNBC cells): immediate increase in extracellular ATP levels
